This note sets out measurements from publication PMC8071423, “A New Pyrimidine Schiff Base with Selective Activities against Enterococcus faecalis and Gastric Adenocarcinoma” (Molecules, 2021).

Broadly, the IC50 is the concentration that gives 50% inhibition. As usually defined, the MBC is the smallest concentration meeting the test's criterion for killing. As usually defined, the MIC is the lowest concentration found to suppress growth.

One data set concerns HeLa. The experiment in a line: Neutral red uptake assay, HeLa. Format: cell-based. The note with it: Homo sapiens, 72 h exposure. Here is the method:
(§1) L-929 (mouse C3H/An connective tissue), Caco-2 (human colon adenocarcinoma), A172 (human glioblastoma), AGS (human gastric adenocarcinoma), HepaRG (human hepatoma cell), and HeLa (human cervix epithelioid carcinoma) cell lines were obtained from the European Collection of Authenticated Cell Cultures (ECACC) and provided by Sigma Aldrich/Merck (Munich, Germany). All cell lines were cultured in complete mediums prepared according to the ECACC recommendations and incubated in a humidified atmosphere with 5% CO2 at 37 °C. Neutral red uptake assay was performed according to the protocol. 24 h before treatment cells were seeded in 96-well plates in 1 × 10^5 cell/mL of complete medium. After incubation and attachment of cells, the medium was discarded, and test substances dissolved in the fresh medium were added to wells. Samples were tested after 24, 48, and 72 h incubation. A neutral red working solution (40 µg/mL) was prepared and incubated overnight. […] Absorption was measured using a Thermo Scientific™ (Waltham, MA, USA) Multiskan™ GO microplate spectrophotometer at 540 nm. […] Viability was calculated according to the following formula:(1) % Viability=ODtest substance−ODblind/ODnegative control−ODblind×100 Neutral red uptake assay was performed in quadruple (n = 4). Results were calculated to mean ± standard deviation (SD) using Microsoft Office Excel 2007. […]

The next data set deals with AGS. Briefly: Neutral red uptake assay, AGS. The format is cell-based. The note with it: Homo sapiens, 72 h exposure. Here is the method: as §1
In the next data set the test system is AGS cell line. The experiment in a line: Flow cytometry viability, FDA/PI double staining. Format: cell-based, human. As to the method:
The flow cytometry analysis was performed to determine cell viability after treatment with a compound showing high proliferation inhibition in neutral red uptake assay. The test is based on FDA’s ability to pass through an intact cell membrane, where it can be hydrolyzed by cytoplasmic esterases to fluorescein, a bright green fluorophore. The protocol was based on a double-staining procedure with FDA and PI [75]. For stock solutions, FDA was dissolved in DMSO and PI in H2O to 1 mM concentrations. Cells were seeded in a 6-well plate with a density of 1 × 10^5 cell/well and maintained at 37 °C under 5% CO2 in a humidified atmosphere. After overnight incubation, cells were treated with a compound diluted to the following concentrations: 100, 80, 40, 10, and 1 µM. Flow cytometry analyses were performed after 24, 48, and 72 h incubation. For the analysis, both floating and adherent cells were collected, centrifuged at 1600 rpm, and washed with PBS. Cells were stained with FDA with a final concentration of 1 µM in PBS, and kept in the dark for 15 min. After incubation, cells were centrifuged, resuspended in ice-cold PBS, and kept on ice until analysis. Directly before testing, samples were stained with a 1 µM PI solution for 2 min. The acquisition was performed with a CyFlow® space flow cytometer, and data analyses were performed using the FloMax software (Partec, Münster, Germany). The percentage of viable cells was calculated based on FDA absorption according to the following formula:(2) % ViabilityFDA=% live cells under experimental conditions/% live cells from negative control×100
For orientation: In flow cytometry, cells or beads pass a laser one at a time.

Data set [1] has as its system Enterococcus faecalis ATCC 29212. The experiment in a line: Antimicrobial microdilution / modified Richards method. Format: cell-based. The settings on record: range tested 1024 to 1 ug/mL. Background: In broth dilution the organism is exposed to a series of concentrations in liquid medium.
Data set [2] is described as follows: Neutral red uptake assay, L-929 cell line (primary screening). The format is cell-based, mouse. The note with it: mouse, L-929 cells, p < 0,05. Here is the method:
L-929 (mouse C3H/An connective tissue), Caco-2 (human colon adenocarcinoma), A172 (human glioblastoma), AGS (human gastric adenocarcinoma), HepaRG (human hepatoma cell), and HeLa (human cervix epithelioid carcinoma) cell lines were obtained from the European Collection of Authenticated Cell Cultures (ECACC) and provided by Sigma Aldrich/Merck (Munich, Germany). All cell lines were cultured in complete mediums prepared according to the ECACC recommendations and incubated in a humidified atmosphere with 5% CO2 at 37 °C. Neutral red uptake assay was performed according to the protocol. 24 h before treatment cells were seeded in 96-well plates in 1 × 10^5 cell/mL of complete medium. After incubation and attachment of cells, the medium was discarded, and test substances dissolved in the fresh medium were added to wells. Samples were tested after 24, 48, and 72 h incubation. A neutral red working solution (40 µg/mL) was prepared and incubated overnight. Immediately before use, it was centrifuged to remove any dye crystals. The medium from wells was aspirated, and 100 µL of neutral red was added to plates and incubated for at least 2 h in 37 °C and 5% CO2 in a humidified atmosphere. To inspect the absorption of neutral red to the lysosomes, microscope visualizations were performed. After incubation, cells were washed with PBS, and destain solution containing ethanol, deionized water, and glacial acetic acid (50:49:1) was added. Plates were shaken rapidly on a horizontal shaker at 37 °C. Absorption was measured using a Thermo Scientific™ (Waltham, MA, USA) Multiskan™ GO microplate spectrophotometer at 540 nm. The negative control was a medium with 1% DMSO, and the positive control was 1 µM staurosporine. Viability was calculated according to the following formula:(1) % Viability=ODtest substance−ODblind/ODnegative control−ODblind×100 Neutral red uptake assay was performed in quadruple (n = 4). Results were calculated to mean ± standard deviation (SD) using Microsoft Office Excel 2007. The viability in negative control was compared to 100%. Statistical analyses were performed using the GraphPad Prism 8.3 for Windows (GraphPad Software, La Jolla, CA, USA, www.graphpad.com). For IC50 results, non-linear regression analyses were performed, and a sigmoidal dose-response curve (variable slope) was fitted. Differences between groups and control were tested using an ANOVA test followed by Dunnett’s post hoc analysis. The significance was set at p ≤ 0.05.

For another data set, the system named is HepaRG. The experiment in a line: Neutral red uptake assay, HepaRG. The format is cell-based. The settings on record: Homo sapiens, 72 h exposure. Here is the method: as §1
The mark [3] stands for this setting: Enterococcus faecalis ATCC 29212.

In brackets after ≈: the same amount, converted by molar mass. Where two headings read alike, the source gives them in different places.

For the compound `CCOc1ccc(N=Cc2c(C)nc(-c3ccccc3)nc2Nc2ccc(F)cc2)cc1` [Compound 3, 5-[(4-ethoxyphenyl)imino]methyl-N-(4-fluorophenyl)-6-methyl-2-phenylpyrimidin-4-amine], the IC50 in the data set with HeLa was 355 µM; with AGS, 50.2 µM; in the data set on AGS cell line (Homo sapiens, referred to control with 1% DMSO), 53 µM; with HepaRG it was 313 µM. Also, the “cells in Q3 (unstained)” value with AGS cell line (100 µM) is recorded as 43.72%. Moreover, in the data set with AGS cell line (100 µM), the “cells in Q4 (PI stained, dead)” value came to 35.76%. Besides, in the data set with AGS cell line (Homo sapiens, 1 µM, read-out: cells in Q1 (FDA stained, viable)), the viability at 1 µM turned out to be 81.5%. Besides, the viability at 10 µM with AGS cell line (Homo sapiens, 10 µM, read-out: cells in Q1 (FDA stained, viable)) was 66.4%. Moreover, the viability at 40 µM in the data set on AGS cell line (Homo sapiens, 40 µM, read-out: cells in Q1 (FDA stained, viable)) is 62.4%. Besides, the viability at 80 µM in the data set with AGS cell line (Homo sapiens, 80 µM, read-out: cells in Q1 (FDA stained, viable)) came out at 41.8%. Further, the viability at 100 µM in the data set on AGS cell line (Homo sapiens, 100 µM, read-out: cells in Q1 (FDA stained, viable)) is 20.2%. Besides, the MBC is 32 µg/mL (≈ 75 µM) in data set [1] (setting [3]) and 16 µg/mL (≈ 37.5 µM) in data set [1] (Enterococcus faecalis, ATCC29212, Enterococcus faecalis ATCC 29212, read-out: MBC). Besides, the MIC in data set [1] (setting [3]) is 16 µg/mL (≈ 37.5 µM); in data set [1] (Enterococcus faecalis, ATCC29212, Enterococcus faecalis ATCC 29212, read-out: MIC), 32 µg/mL (≈ 75 µM). Also, in data set [2] (L-929, 250 µM), the viability at 250 µM came to 115%. In addition, the viability at 500 µM in data set [2] (L-929, 500 µM) was 111%. For the same compound, in data set [2] (L-929, 1000 µM), the viability at 1000 µM is 115%.
